Laboratory results as given in patent US20260240835A1 (priority 2022, published 2026).
Where a name gives a salt, the structure may show the parent alone. Read-outs that look alike come from different tables or passages of the source.

Key:
[1] = Steady state pharmacokinetics after administration of the subject combination; details: for AUC0-12 relative to that of bupropion / Cmax relative to that of bupropion / time post-dose at which Cmax of the metabolite occurs: after administration of the subject combination; for apparent elimination half-life of metabolite: subject combination; for dose proportionality of changes in AUC and Cmax at steady state: co-administered with bupropion
[2] = Pharmacokinetics in moderate hepatic impairment versus matched healthy subjects; type: in vivo, human
Description: Data are GMRs and 90% Cls. References used are the matched healthy subjects for renal and hepatic impairment studies, and extensive or ultra-extensive CYP2D6 metabolizers respectively.

[3] = Pharmacokinetics in moderate renal impairment versus matched controls
Description: (§1) References used are the matched healthy subjects for renal and hepatic impairment studies, and extensive or ultra-extensive CYP2D6 metabolizers respectively.

[4] = Solubility of the powder in water
[5] = Pharmacokinetics in CYP2D6 poor metabolizers versus extensive metabolizers; details: 12 poor metabolizers treated with the subject combination in efficacy trials
Description: Approximately 7% to 10% of Caucasians and 3% to 8% of African Americans lack the capacity to metabolize CYP2D6 substrates and are classified as poor metabolizers.
as §1

[6] = Co-administration of paroxetine and the subject combination (drug interaction)
[7] = Effect of food on pharmacokinetics of the subject combination
[8] = test system: patients with treatment-resistant depression or MDD with acute suicidal ideation or behavior; details: cited from earlier work
[9] = human, in vivo
[10] = 20 mg paroxetine, tablet of Example 4 twice daily, vs tablet without paroxetine
[11] = given as the subject combination
[12] = 7 subjects with moderate (GFR 30-60 mL/min) renal impairment vs 6 matched controls

For `C[C@H]1NC(C)(C)CO[C@]1(O)c1cccc(Cl)c1` [hydroxybupropion], the “AUC0-12 relative to that of bupropion” value [1] was “about 19 times”, the “Cmax relative to that of bupropion” value [1] was “approximately 14 times” and the “time post-dose at which Cmax of the metabolite occurs” value (“time post-dose at which Cmax” for short) [1] was “about 3 hours”. The “apparent elimination half-life of metabolite” value (shortened to “apparent elimination half-life”) [1] was “approximately 35 hours”.

With `CC(NC(C)(C)C)C(=O)c1cccc(Cl)c1` (racemic) [bupropion] the “AUC0-12 and Cmax compared with healthy patients” value ([2]; human, in vivo) was “not significantly different”, the “increase in exposure versus matched controls with normal renal function” value ([3]; human, in vivo) was “approximately 2 fold” and the “reduction in clearance versus matched controls with normal renal function” value ([3]; human, in vivo) was 50%.

For `C[C@H](NC(C)(C)C)[C@@H](O)c1cccc(Cl)c1` [threohydroxybupropion], the “AUC0-12 relative to that of bupropion” value [1] was “about 7 times”, the “Cmax relative to that of bupropion” value [1] was “about 5 times” and the “time post-dose at which Cmax” value [1] was “approximately 4 hours”. The “apparent elimination half-life” value [1] was roughly 33 h.

With `CC(NC(C)(C)C)C(O)c1cccc(Cl)c1` (centres unmarked) [erythrohydroxybupropion] the “AUC0-12 relative to that of bupropion” value [1] was “about 1.2 times”, the “Cmax relative to that of bupropion” value [1] was “approximately equal to” and the “time post-dose at which Cmax” value [1] was “approximately 4 hours”. For the same molecule, the “apparent elimination half-life” value [1] was roughly 44 h.

With `COc1ccc2c(c1)[C@]13CCCC[C@@H]1[C@H](C2)N(C)CC3` [Dextromethorphan hydrobromide, morphinan, 3-methoxy-17-methyl-, (9α, 13α, 14α), hydrobromide monohydrate] the solubility in water [4] was “sparingly soluble”.

In the case of `COc1ccc2c(c1)[C@]13CCCC[C@@H]1[C@H](C2)N(C)CC3` [dextromethorphan], the “AUC0-12 and Cmax compared with healthy patients” value ([2]; patients having moderate hepatic impairment (Group 2)) is reported as “not significantly different”, the “steady state plasma concentrations compared with non-poor metabolizers” value [5] is reported as “generally higher” and the “increase in AUC0-12 with concomitant paroxetine” value [6, 10] is reported as 2.69 fold. For the same molecule, the “increase in Cmax with concomitant paroxetine” value [6, 10] was 2.38 fold, the “change in overall exposure caused by paroxetine” value ([6]; 29 healthy volunteers, paroxetine co-administered with the subject combination) was 2.5 fold and the “dose proportionality of changes in AUC and Cmax at steady state” value ([1]; varying doses of bupropion (75 to 150 mg)) was “less than dose-proportional”. For the same molecule, the “dose proportionality of changes in AUC and Cmax at steady state” value ([1]; varying doses of dextromethorphan (30 to 60 mg)) was “greater than dose-proportional”, the “increase in mean elimination half-life as compared to dextromethorphan given without bupropion” value ([1]; following 8 days of administration of the subject combination in extensive metabolizers) was “approximately 3 fold” and the “accumulation ratio at steady state based on AUC0-12” value [1, 11] was “about 32”. For the same molecule, the “accumulation ratio at steady state based on Cmax” value [1, 11] was “about 20”, the “change in Cmax when administered with food” value [7] was “unchanged” and the “decrease in AUC0-12 when administered with food” value [7] was 14%. For the same molecule, the “increase in exposure versus matched controls with normal renal function” value [3, 12] was “approximately 2 fold” and the “reduction in clearance versus matched controls with normal renal function” value [3, 12] was 50%.

In the case of `CN[C@]1(c2ccccc2Cl)CCCCC1=O` [esketamine], the “incidence of sedation (MOAA/S score <5) compared to placebo plus oral antidepressant” value ([8]; adults with MDD with acute suicidal ideation or behavior, plus oral antidepressant) is given as “higher incidence of sedation”, the “Incidence of Sedation (MOAA/S score <5)” value ([8]; fixed-dose study, TRD patients <65 years, 56 mg + oral AD) is given as 50% and the “Incidence of Sedation (MOAA/S score <5)” value ([8]; fixed-dose study, TRD patients <65 years, 84 mg + oral AD) is given as 61%. The “Incidence of Sedation (MOAA/S score <5)” value ([8]; flexible-dose study, TRD patients ≥65 years, 28 to 84 mg + oral AD) was 49%.

In the case of `Fc1ccc([C@@H]2CCNC[C@H]2COc2ccc3c(c2)OCO3)cc1` [paroxetine], the “increase in overall exposure when co-administered with the subject combination” value [9] is reported as 1.2 fold.
